Data from US5571807A, “1,5 benzothiazepinone dervatives their preparation and pharmaceutical use” (Istituto Luso Farmaco d'Italia S.p.A., priority 1990, dated 1996).
Structures can show the parent of a compound that is named as a salt.

Columns and labels:
[1] = biological target: 3H-diltiazem binding sites in the cardiac tissue (Homo sapiens, UniProt Q13936); assay: biochemical; conditions: displacement of 3H-diltiazem, read-out: receptorial binding (pIC50) (converted)
rabbit isolated atrium = rabbit isolated atrium (Oryctolagus cuniculus, UniProt P15381); assay: cell-based; conditions: inhibition of tonic contraction; read-out: rabbit isolated atrium (pA2) (converted)
[2] = Pharmacokinetic studies in the conscious incannulated rat; conditions: in vivo, po, 50 mg/kg/os, read-out: pharmacokinetics in the rat t 1/2
[3] = tested on: vasopressine-induced angina in the rat; assay: Vasopressine-induced angina in the rat; type: in vivo; conditions: for ED50: iv, read-out: angina vasopressine test rat (iv) ED50
[4] = humans; cited from earlier work

Chain of 3H-diltiazem binding sites in the cardiac tissue (Q13936 whole entry): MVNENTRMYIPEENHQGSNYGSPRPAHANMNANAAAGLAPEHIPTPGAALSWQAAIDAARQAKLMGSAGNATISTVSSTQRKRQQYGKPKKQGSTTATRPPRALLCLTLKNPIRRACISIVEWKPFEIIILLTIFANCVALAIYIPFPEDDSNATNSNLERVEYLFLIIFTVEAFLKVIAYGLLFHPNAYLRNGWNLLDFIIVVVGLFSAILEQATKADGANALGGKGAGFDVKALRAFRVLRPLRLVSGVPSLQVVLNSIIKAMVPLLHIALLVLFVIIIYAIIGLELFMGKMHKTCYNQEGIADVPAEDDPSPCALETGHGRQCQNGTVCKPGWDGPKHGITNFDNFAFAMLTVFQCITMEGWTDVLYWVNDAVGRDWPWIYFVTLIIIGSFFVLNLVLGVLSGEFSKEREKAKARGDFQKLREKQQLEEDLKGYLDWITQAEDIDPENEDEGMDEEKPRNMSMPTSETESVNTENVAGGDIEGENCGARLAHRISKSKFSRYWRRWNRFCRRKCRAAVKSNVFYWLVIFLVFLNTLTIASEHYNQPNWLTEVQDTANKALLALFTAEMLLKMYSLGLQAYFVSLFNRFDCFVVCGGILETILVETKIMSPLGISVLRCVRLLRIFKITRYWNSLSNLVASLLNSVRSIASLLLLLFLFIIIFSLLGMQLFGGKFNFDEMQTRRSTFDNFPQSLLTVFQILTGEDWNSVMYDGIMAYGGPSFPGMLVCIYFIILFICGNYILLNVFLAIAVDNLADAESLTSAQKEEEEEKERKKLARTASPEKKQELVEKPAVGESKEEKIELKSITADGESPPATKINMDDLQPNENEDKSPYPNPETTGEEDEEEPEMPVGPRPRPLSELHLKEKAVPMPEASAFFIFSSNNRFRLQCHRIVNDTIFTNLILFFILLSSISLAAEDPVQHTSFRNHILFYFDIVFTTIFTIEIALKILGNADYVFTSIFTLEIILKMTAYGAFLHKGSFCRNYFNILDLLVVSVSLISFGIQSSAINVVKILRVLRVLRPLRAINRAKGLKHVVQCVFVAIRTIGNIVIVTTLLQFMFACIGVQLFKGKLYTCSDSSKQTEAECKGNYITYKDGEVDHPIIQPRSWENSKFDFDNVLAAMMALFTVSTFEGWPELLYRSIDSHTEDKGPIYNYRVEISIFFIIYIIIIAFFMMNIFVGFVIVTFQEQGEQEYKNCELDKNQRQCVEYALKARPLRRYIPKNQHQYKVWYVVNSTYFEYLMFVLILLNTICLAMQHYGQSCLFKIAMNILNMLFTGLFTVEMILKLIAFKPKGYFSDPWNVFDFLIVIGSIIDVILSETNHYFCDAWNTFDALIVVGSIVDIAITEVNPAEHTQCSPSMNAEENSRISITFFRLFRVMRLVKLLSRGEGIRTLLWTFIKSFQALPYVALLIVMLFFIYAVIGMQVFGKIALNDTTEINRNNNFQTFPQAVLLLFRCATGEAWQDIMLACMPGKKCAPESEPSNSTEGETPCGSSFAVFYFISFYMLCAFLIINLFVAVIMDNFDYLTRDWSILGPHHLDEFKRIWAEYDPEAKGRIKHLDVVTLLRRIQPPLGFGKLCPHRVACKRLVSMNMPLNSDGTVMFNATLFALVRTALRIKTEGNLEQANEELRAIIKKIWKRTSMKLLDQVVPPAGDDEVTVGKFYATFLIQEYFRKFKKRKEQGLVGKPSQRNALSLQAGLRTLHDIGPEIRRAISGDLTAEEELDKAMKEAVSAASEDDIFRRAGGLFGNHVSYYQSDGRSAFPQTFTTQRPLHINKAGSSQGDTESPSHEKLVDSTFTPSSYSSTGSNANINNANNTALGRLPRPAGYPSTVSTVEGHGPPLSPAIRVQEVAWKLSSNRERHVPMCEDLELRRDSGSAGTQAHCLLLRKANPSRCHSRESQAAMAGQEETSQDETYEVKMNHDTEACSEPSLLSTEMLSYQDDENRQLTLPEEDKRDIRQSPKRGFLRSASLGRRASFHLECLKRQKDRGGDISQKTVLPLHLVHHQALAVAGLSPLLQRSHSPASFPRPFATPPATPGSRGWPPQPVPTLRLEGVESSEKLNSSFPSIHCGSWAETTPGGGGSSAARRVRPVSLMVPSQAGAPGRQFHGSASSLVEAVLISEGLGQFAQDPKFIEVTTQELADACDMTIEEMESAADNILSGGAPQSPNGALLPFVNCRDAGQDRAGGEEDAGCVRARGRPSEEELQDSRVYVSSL
Chain of 3H-diltiazem binding sites in the cardiac tissue (Q08289 whole entry partner): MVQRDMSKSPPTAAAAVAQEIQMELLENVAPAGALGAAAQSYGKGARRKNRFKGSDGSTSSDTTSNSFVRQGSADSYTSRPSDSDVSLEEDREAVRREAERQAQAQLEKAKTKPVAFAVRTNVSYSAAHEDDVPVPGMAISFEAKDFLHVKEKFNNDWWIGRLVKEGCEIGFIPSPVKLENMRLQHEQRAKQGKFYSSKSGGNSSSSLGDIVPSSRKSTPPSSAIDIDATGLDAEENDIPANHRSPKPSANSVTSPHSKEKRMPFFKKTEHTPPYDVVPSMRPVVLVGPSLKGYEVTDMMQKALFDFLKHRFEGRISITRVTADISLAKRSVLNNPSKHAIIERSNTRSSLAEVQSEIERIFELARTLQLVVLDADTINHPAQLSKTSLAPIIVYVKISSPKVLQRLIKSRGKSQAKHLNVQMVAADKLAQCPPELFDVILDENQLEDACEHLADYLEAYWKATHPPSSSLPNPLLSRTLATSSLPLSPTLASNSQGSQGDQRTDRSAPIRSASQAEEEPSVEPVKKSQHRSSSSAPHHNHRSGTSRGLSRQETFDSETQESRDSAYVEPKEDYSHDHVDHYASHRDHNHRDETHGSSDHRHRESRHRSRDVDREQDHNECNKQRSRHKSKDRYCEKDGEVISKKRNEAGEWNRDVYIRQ
Chain of 3H-diltiazem binding sites in the cardiac tissue (P54289 25-957 partner limits assumed): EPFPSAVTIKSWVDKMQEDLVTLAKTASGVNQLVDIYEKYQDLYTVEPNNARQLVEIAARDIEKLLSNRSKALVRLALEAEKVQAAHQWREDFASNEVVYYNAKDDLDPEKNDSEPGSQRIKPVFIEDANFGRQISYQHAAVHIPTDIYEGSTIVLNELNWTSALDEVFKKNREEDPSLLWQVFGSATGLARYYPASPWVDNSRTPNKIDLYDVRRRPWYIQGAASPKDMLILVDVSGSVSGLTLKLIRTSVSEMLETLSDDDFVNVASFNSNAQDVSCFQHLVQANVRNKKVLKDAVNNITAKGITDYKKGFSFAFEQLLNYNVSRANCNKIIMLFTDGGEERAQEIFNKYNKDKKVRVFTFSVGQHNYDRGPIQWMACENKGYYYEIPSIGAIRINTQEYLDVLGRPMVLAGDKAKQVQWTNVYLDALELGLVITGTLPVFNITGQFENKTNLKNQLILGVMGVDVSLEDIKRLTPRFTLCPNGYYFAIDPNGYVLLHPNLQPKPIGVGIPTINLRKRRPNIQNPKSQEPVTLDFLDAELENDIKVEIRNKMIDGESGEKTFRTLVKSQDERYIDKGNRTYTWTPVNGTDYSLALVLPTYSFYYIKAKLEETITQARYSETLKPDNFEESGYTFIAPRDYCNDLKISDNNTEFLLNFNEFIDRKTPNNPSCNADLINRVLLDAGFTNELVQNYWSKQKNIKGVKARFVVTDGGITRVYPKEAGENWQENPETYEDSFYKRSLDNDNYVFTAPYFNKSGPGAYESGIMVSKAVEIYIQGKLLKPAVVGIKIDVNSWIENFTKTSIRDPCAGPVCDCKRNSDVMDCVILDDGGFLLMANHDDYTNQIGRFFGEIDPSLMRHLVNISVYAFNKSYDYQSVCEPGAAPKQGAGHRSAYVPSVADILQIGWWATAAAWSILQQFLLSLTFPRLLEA
Chain of 3H-diltiazem binding sites in the cardiac tissue (P54289 958-1103 partner limits assumed): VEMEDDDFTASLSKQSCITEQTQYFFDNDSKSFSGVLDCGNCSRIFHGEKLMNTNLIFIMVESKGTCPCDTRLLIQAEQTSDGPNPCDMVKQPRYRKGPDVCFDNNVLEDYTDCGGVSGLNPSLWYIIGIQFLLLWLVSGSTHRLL

IC50 [1]	Kb (rabbit isolated atrium)	half-life [2]	Compound	angina vasopressine test rat (iv) duration [3]	ED50 [3]	elimination half-life [4]
64.6 nM	50.1 nM	1.53 h	COc1ccc([C@@H]2Sc3ccccc3N(CCN(C)C(C)C)C(=O)[C@@H]2OC(C)=O)cc1 [Compound A, Cis(+)-3-acetyloxy-2,3-dihydro-5-(2-N-isopropyl-N-methylaminoethyl)-2-(4-methoxyphenyl)-1,5-benzothiazepin-4(5H)-one hydrobromide]	78 min	0.49 mg/kg	
		0.95 h	COc1ccc([C@@H]2Sc3ccccc3N(CCN(C)C)C(=O)[C@@H]2OC(C)=O)cc1 [Diltiazem, reference compound]		0.45 mg/kg	short elimination half-life
30.2 nM	63.1 nM	1.18 h	COc1ccc([C@@H]2Sc3ccccc3N(CC(C)CN(C)C)C(=O)[C@@H]2OC(C)=O)cc1.O=C(O)C(=O)O (single isomer, unassigned; diastereoisomer b) [Compound B, Cis(+)-3-acetyloxy-2,3-dihydro-5-(2-methyl-3-dimethylaminopropyl)-2-(4-methoxyphenyl)-1,5-benzothiazepin-4(5H)-one oxalate (diastereoisomer B)]	72 min	0.54 mg/kg	
